Measurements: ChEMBL document CHEMBL1201862, “PubChem BioAssay data set” (2004)
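Test compounds were applied to cells in 96-well plates for 48 hours at 5 doses. At the GI50, growth is halved.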 Active and inactive are the calls of the source. Cut-off read from the data, not from the text of the source: active = GI50 up to about 1.1 µM and inactive = higher.

Legend:
Assay in all cases: growth of human tumour cells (NCI), 48 h
NCI-H226 = system: NCI-H226
NCI-H460 = system: NCI-H460
ACHN = system: ACHN
786-0 = system: 786-0
SF-539 = system: SF-539
PC-3 = system: PC-3
HL-60 = system: HL-60
MDA-N = system: MDA-N
Hs-578T = system: Hs-578T
NCI-H23 = system: NCI-H23
SN12C = system: SN12C
SF-268 = system: SF-268
SR = system: SR
MCF7 = system: MCF7
OVCAR-8 = system: OVCAR-8
RPMI-8226 = system: RPMI-8226
IGROV-1 = system: IGROV-1
M14 = system: M14
SF-295 = system: SF-295
HCT-15 = system: HCT-15
SW-620 = system: SW-620
HOP-62 = system: HOP-62
UACC-257 = system: UACC-257
HT-29 = system: HT-29
T47D = system: T47D
COLO 205 = system: COLO 205
NCI/ADR-RES = system: NCI/ADR-RES
MDA-MB-435 = system: MDA-MB-435
A549 = system: A549
SK-MEL-28 = system: SK-MEL-28
K562 = system: K562
MDA-MB-231 = system: MDA-MB-231
SK-MEL-2 = system: SK-MEL-2
SK-OV-3 = system: SK-OV-3
HOP-92 = system: HOP-92
TK-10 = system: TK-10
HCT-116 = system: HCT-116
NCI-H522 = system: NCI-H522
OVCAR-5 = system: OVCAR-5
EKVX = system: EKVX
UO-31 = system: UO-31
A498 = system: A498
DU-145 = system: DU-145
RXF 393 = system: RXF 393
SK-MEL-5 = system: SK-MEL-5
MOLT-4 = system: MOLT-4
CAKI-1 = system: CAKI-1
HCC 2998 = system: HCC 2998
BT-549 = system: BT-549
LOX IMVI = system: LOX IMVI
KM12 = system: KM12
CCRF-CEM = system: CCRF-CEM
Malme-3M = system: Malme-3M
OVCAR-4 = system: OVCAR-4
UACC-62 = system: UACC-62
OVCAR-3 = system: OVCAR-3
U-251 = system: U-251
SNB-19 = system: SNB-19

SMILES: C=CCCCCCCCCCOC1C=CC(OC(C)=O)C(COC(C)=O)O1 (stereo not drawn)
- GI50 (NCI-H226): > 100 µM (inactive)
- GI50 (NCI-H460): 38.7 µM (inactive)
- GI50 (ACHN): 65.5 µM (inactive)
- GI50 (786-0): 67.8 µM (inactive)
- GI50 (SF-539): > 100 µM (inactive)
- GI50 (PC-3): 32 µM (inactive)
- GI50 (HL-60): 24.2 µM (inactive)
- GI50 (MDA-N): 44.3 µM (inactive)
- GI50 (Hs-578T): 28.9 µM (inactive)
- GI50 (NCI-H23): 32.1 µM (inactive)
- GI50 (SN12C): 42.8 µM (inactive)
- GI50 (SF-268): 37.3 µM (inactive)
- GI50 (SR): 32.7 µM (inactive)
- GI50 (MCF7): 38.8 µM (inactive)
- GI50 (OVCAR-8): 18.1 µM (inactive)
- GI50 (RPMI-8226): 13.2 µM (inactive)
- GI50 (IGROV-1): 27 µM (inactive)
- GI50 (M14): 30.1 µM (inactive)
- GI50 (SF-295): 72.9 µM (inactive)
- GI50 (HCT-15): 36.6 µM
- GI50 (SW-620): 57 µM (inactive)
- GI50 (HOP-62): 83.8 µM (inactive)
- GI50 (UACC-257): 29 µM (inactive)
- GI50 (HT-29): 21.4 µM (inactive)
- GI50 (T47D): 77.3 µM (inactive)
- GI50 (COLO 205): 51.6 µM (inactive)
- GI50 (NCI/ADR-RES): 41.4 µM (inactive)
- GI50 (MDA-MB-435): 50.8 µM (inactive)
- GI50 (A549): 55.7 µM (inactive)
- GI50 (SK-MEL-28): > 100 µM (inactive)
- GI50 (K562): 1.99 µM (inactive)
- GI50 (MDA-MB-231): > 100 µM (inactive)
- GI50 (SK-MEL-2): 38.3 µM (inactive)
- GI50 (SK-OV-3): > 100 µM (inactive)
- GI50 (HOP-92): 58.2 µM (inactive)
- GI50 (TK-10): 44.3 µM (inactive)
- GI50 (HCT-116): 53.2 µM (inactive)
- GI50 (NCI-H522): 26.5 µM (inactive)
- GI50 (OVCAR-5): > 100 µM (inactive)
- GI50 (EKVX): 47.6 µM (inactive)
- GI50 (UO-31): 44.8 µM (inactive)
- GI50 (A498): > 100 µM (inactive)
- GI50 (DU-145): > 100 µM (inactive)
- GI50 (RXF 393): > 100 µM (inactive)
- GI50 (SK-MEL-5): 31.6 µM (inactive)
- GI50 (MOLT-4): 24.5 µM (inactive)
- GI50 (CAKI-1): 80.5 µM (inactive)
- GI50 (HCC 2998): 39.8 µM (inactive)
- GI50 (BT-549): 66.4 µM (inactive)
- GI50 (LOX IMVI): 34.2 µM (inactive)
- GI50 (KM12): 26.9 µM (inactive)
- GI50 (CCRF-CEM): 39.1 µM (inactive)
- GI50 (Malme-3M): 35.2 µM (inactive)
- GI50 (OVCAR-4): 45.8 µM (inactive)
- GI50 (UACC-62): 46.8 µM (inactive)
- GI50 (OVCAR-3): 44.4 µM (inactive)
- GI50 (U-251): 39.6 µM (inactive)
- GI50 (SNB-19): > 100 µM (inactive)
